Source: patent US20170247326A1, “Substituted Pyrrolidine Carboxamide Compounds” (EPIZYME, INC., priority 2014, published 2017)

molecular target: T1, SMYD2 (Homo sapiens, UniProt Q9NRG4); test: SMYD2 biochemical assay (3H-SAM, biotinylated peptide substrate, Flashplate); settings: Table 1; average of n = 1 to n = 50; read-out: SMYD2 Biochem IC50
T1 construct: Full length SMYD2 (NP_064582.2) was cloned; His6 (N, cleaved yes); FLAG (N); made in house; host or cells: Sf9 insect cells
Source text: S-adenosylmethionine (SAM), S-adenosylhomocysteine (SAH), bicine, Tween20, dimethylsulfoxide (DMSO), bovine skin gelatin (BSG), and Tris(2-carboxyethyl)phosphine hydrochloride (TCEP) were purchased from Sigma-Aldrich at the highest level of purity possible. ^3H-SAM was purchase from American Radiolabeled Chemicals with a specific activity of 80 Ci/mmol. 384-well streptavidin Flashplates were purchased from PerkinElmer.
Peptide was synthesized with a N-terminal linker-affinity tag motif and a C-terminal amide cap by 21st Century Biochemicals. The peptide was high high-performance liquid chromatography (HPLC) purified to greater than 95% purity and confirmed by liquid chromatography mass spectrometry (LC-MS). The sequence was […](K-Biot)-amide. (SEQ ID NO: 3)
Full length SMYD2 (NP_064582.2) was cloned into a pFastbac-Htb-lic vector with an N-terminal His6 tag and FLAG tag, preceded by a TEV protease cleavage site. The protein was expressed in Sf9 insect cells. Cells were resuspended in lysis buffer (25 mM HEPES-NaOH, pH 7.5, 200 mM NaCl, 5% glycerol, and 5 mM […] and lysed by sonication. The protein was purified by Ni-NTA (Qiagen), followed by TEV cleavage to remove the His6 tag, subtractive Ni-NTA (Qiagen), and gel filtration chromatography using an S200 column (GE Healthcare). Purified protein was stored in 20 mM Tris-HCl, pH 8.0, 100 mM NaCl, and 1 mM TCEP.
General Procedure for SMYD2 Enzyme Assays on Peptide Substrates
The assays were all performed in a buffer consisting of 20 mM Bicine (pH=7.6), 1 mM TCEP, 0.005% Bovine Skin Gelatin, and 0.002% Tween20, prepared on the day of use. Compounds in 100% DMSO (1 ul) were spotted into a polypropylene 384-well V-bottom plates (Greiner) using a Platemate Plus outfitted with a 384-channel head (Thermo Scientific). DMSO (1 ul) was added to Columns 11, 12, 23, 24, rows A-H for the maximum signal control and 1 ul of SAH, a known product and inhibitor of SMYD2, was added to columns 11, 12, 23, 24, rows I-P for the minimum signal control. A cocktail (40 ul) containing the SMYD2 enzyme was added by Multidrop Combi (Thermo-Fisher). The compounds were allowed to incubate with SMYD2 for 30 min at room temperature, then a cocktail (10 ul) containing ^3H-SAM and peptide was added to initiate the reaction (final volume=51 ul). The final concentrations of the components were as follows: SMYD2 was 1.5 nM, ^3H-SAM was 10 nM, and peptide was 60 nM, SAH in the minimum signal control wells was 1000 uM, and the DMSO concentration was 2%. The assays were stopped by the addition of non-radioactive SAM (10 ul) to a final concentration of 600 uM, which dilutes the ^3H-SAM to a level where its incorporation into the peptide substrate is no longer detectable. 50 ul of the reaction in the 384-well polypropylene plate was then transferred to a 384-well Flashplate and the biotinylated peptides were allowed to bind to the streptavidin surface for at least 1 hour before being washed three times with 0.1% Tween20 in a Biotek ELx405 plate washer. The plates were then read in a PerkinElmer TopCount plate reader to measure the quantity of ^3H-labeled peptide bound to the Flashplate surface, measured as disintegrations per minute (dpm) or alternatively, referred to as counts per minute (cpm).
Where dpm=disintegrations per minute, cmpd=signal in assay well, and min and max are the respective minimum and maximum signal controls.
Where top and bottom are the normally allowed to float, but may be fixed at 100 or 0 respectively in a 3-parameter fit. The Hill Coefficient normally allowed to float but may also be fixed at 1 in a 3-parameter fit. I is the compound concentration.
SMYD2 biochemical assay data for representative Compounds of the Disclosure are presented in Tables 1, 3, and 4 in the column titled “SMYD2 Bicohem IC50 (μM).”

T1 sequence (Q9NRG4 whole entry): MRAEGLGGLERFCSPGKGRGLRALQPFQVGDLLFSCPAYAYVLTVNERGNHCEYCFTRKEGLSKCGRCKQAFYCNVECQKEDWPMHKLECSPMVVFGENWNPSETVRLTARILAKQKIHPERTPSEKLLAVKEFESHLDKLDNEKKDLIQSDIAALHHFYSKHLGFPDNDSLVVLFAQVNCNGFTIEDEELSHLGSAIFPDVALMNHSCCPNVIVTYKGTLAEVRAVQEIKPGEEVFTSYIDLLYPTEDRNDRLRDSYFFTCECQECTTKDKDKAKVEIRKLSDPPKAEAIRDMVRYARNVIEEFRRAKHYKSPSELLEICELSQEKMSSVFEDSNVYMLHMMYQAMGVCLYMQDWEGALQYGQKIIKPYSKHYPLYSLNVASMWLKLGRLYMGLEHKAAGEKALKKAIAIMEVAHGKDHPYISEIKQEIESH

| Molecule | IC50 [µM] |
| --- | --- |
| C[C@H]1CN(C2CC2)C[C@@H]1NC(=O)c1ccc2c(c1)OC(F)(F)O2 (racemic) [compound 1, (±)-trans-N-(1-cyclopropyl-4-methylpyrrolidin-3-yl)-2,2-difluorobenzo[d][1,3]dioxole-5-carboxamide] | > 50 |
| CCc1cc(C(=O)N[C@H]2CN(C3CC3)C[C@@H]2C)ns1 (racemic) [compound 11, (±)-trans-N-(1-cyclopropyl-4-methylpyrrolidin-3-yl)-5-ethylisothiazole-3-carboxamide] | > 50 |
| C[C@H]1CN(C2CC2)C[C@H]1NC(=O)c1ccc2[nH]c(=O)oc2c1 (racemic) [compound 14, (±)-cis-N-(1-cyclopropyl-4-methylpyrrolidin-3-yl)-2-oxo-2,3-dihydrobenzo[d]oxazole-6-carboxamide] | > 50 |
| C[C@H]1CN(C2CC2)C[C@@H]1NC(=O)c1cn(C2CC2)nn1 (racemic) [compound 18, (±)-trans-1-cyclopropyl-N-(1-cyclopropyl-4-methylpyrrolidin-3-yl)-1H-1,2,3-triazole-4-carboxamide] | 13.2 |
| Cc1cc(C(=O)N[C@@H]2CN(C3CC3)C[C@@H]2C)n(Cc2ccccc2)n1 (racemic) [compound 10, (±)-cis-1-benzyl-N-(1-cyclopropyl-4-methylpyrrolidin-3-yl)-3-methyl-1H-pyrazole-5-carboxamide] | > 50 |
| Cc1cc(C(=O)N[C@H]2CN(C3CC3)C[C@@H]2C)n(Cc2ccccc2)n1 (racemic) [compound 9, (±)-trans-1-benzyl-N-(1-cyclopropyl-4-methylpyrrolidin-3-yl)-3-methyl-1H-pyrazole-5-carboxamide] | > 50 |
| C[C@H]1CN(C2CC2)C[C@@H]1NC(=O)c1ccc2c(c1)CC(=O)N2 (racemic) [Cpd. No. 5, (±)-trans-N-(1-cyclopropyl-4-methylpyrrolidin-3-yl)-2-oxoindoline-5-carboxamide] | > 50 |

same assay, conditions: Table 3; average of n = 1 to n = 50; read-out: SMYD2 Biochem IC50

| Molecule | IC50 [µM] |
| --- | --- |
| CC(C)N1C[C@@H](C)[C@H](NC(=O)c2cn(C3CC3)nn2)C1 (racemic) [compound 26, (±)-trans-1-cyclopropyl-N-[4-methyl-1-(propan-2-yl)pyrrolidin-3-yl]-1H-1,2,3-triazole-4-carboxamide] | 19.3 |
| CN(C)C1CCC(NC(=O)c2cn(C3CC3)nn2)C1 (stereo not drawn) [compound 122, 1-cyclopropyl-N-[3-(dimethylamino)cyclopentyl]-1H-1,2,3-triazole-4-carboxamide] | > 50 |
| CC(C)N1C[C@@H](C)[C@H](NC(=O)c2ncc(C3CC3)cn2)C1 (racemic) [compound 66, (±)-trans-5-cyclopropyl-N-[4-methyl-1-(propan-2-yl)pyrrolidin-3-yl]pyrimidine-2-carboxamide] | > 50 |
| CC(C)N1C[C@@H](C)[C@@H](NC(=O)c2cc(C3CC3)cnn2)C1 (stereo in doubt) [compound 110, (±)-cis-5-cyclopropyl-N-[4-methyl-1-(propan-2-yl)pyrrolidin-3-yl]pyridazine-3-carboxamide] | 0.424 |
| CC(C)N1C[C@@H](C)[C@H](NC(=O)c2nc(C3CC3)cs2)C1 (racemic) [compound 36, (±)-trans-4-cyclopropyl-N-[4-methyl-1-(propan-2-yl)pyirolidin-3-yl]-1,3-thiazole-2-carboxamide] | > 50 |
| CC(C)N1C[C@@H](C)[C@H](NC(=O)c2ncc(C3CC3)s2)C1 (racemic) [compound 72, (±)-trans-5-cyclopropyl-N-[4-methyl-1-(propan-2-yl)pyrrolidin-3-yl]-1,3-thiazole-2-carboxamide] | > 50 |
| C[C@H]1CN(C)C[C@H]1NC(=O)c1cc(C2CC2)cnn1 (racemic) [compound 103, (±)-cis-5-cyclopropyl-N-(1,4-dimethylpyrrolidin-3-yl)pyridazine-3-carboxamide] | 1.67 |
| CC(C)N1C[C@H](C)[C@H](NC(=O)c2cc(O)c3c(c2)OCC(=O)N3)C1 (racemic) [compound 85, (±)-cis-5-hydroxy-N-[4-methyl-1-(propan-2-yl)pyrrolidin-3-yl]-3-oxo-3,4-dihydro-2H-1,4-benzoxazine-7-carboxamide] | > 50 |
| CC(C)N1C[C@@H](C)[C@H](NC(=O)c2cn(C(C)C)nn2)C1 (racemic) [compound 24, (±)-trans-N-[4-methyl-1-(propan-2-yl)pyrrolidin-3-yl]-1-(propan-2-yl)-1H-1,2,3-triazole-4-carboxamide] | > 50 |
| CC(C)N1C[C@H](C)[C@H](NC(=O)c2nc(C3CC3)no2)C1 (racemic) [compound 81, (±)-cis-3-cyclopropyl-N-[4-methyl-1-(propan-2-yl)pyrrolidin-3-yl]-1,2,4-oxadiazole-5-carboxamide] | > 50 |
| CC(C)N1C[C@H](C)[C@H](NC(=O)c2cncc(C3CC3)c2)C1 (racemic) [compound 90, (±)-cis-5-cyclopropyl-N-[4-methyl-1-(propan-2-yl)pyrrolidin-3-yl]pyridine-3-carboxamide] | > 50 |
| CC(C)N1C[C@@H](C)[C@H](NC(=O)c2cc(C3CC3)cnn2)C1 (racemic) [compound 111, (±)-trans-5-cyclopropyl-N-[4-methyl-1-(propan-2-yl)pyrrolidin-3-yl]pyridazine-3-carboxamide] | 12 |
| CC(C)N1CCC(C(=O)Nc2cc(O)c3c(c2)OCC(=O)N3)C1 (stereo not drawn) [compound 87, N-(5-hydroxy-3-oxo-3,4-dihydro-2H-1,4-benzoxazin-7-yl)-1-(propan-2-yl)pyrrolidine-3-carboxamide] | > 50 |
| CC(C)N1C[C@H](C)[C@H](NC(=O)c2cc(C3CCC3)cnn2)C1 (racemic) [compound 94, (±)-cis-5-cyclobutyl-N-[4-methyl-1-(propan-2-yl)pyrrolidin-3-yl]pyridazine-3-carboxamide] | > 50 |
| (±)-cis-N-(1-((2-aminoethyl)sulfonyl)-4-methylpyrrolidin-3-yl)-5-cyclopmpylpyridazine-3-carboxamide [compound 113] | > 50 |
| CC(C)N1C[C@H](C)[C@H](NC(=O)c2cnc(C3CC3)cn2)C1 (racemic) [compound 51, (±)-cis-5-cyclopropyl-N-[4-methyl-1-(propan-2-yl)pyrrolidin-3-yl]pyrazine-2-carboxamide] | > 50 |
| CC(C)N1C[C@@H](C)[C@H](NC(=O)c2c[nH]c(C3CC3)n2)C1 (racemic) [compound 71, (±)-trans-2-cyclopropyl-N-[4-methyl-1-(propan-2-yl)pyrrolidin-3-yl]-1H-imidazole-4-carboxamide] | > 50 |
| CC(C)N1C[C@H](C)[C@H](NC(=O)c2ccc3c(c2)OCC(=O)N3)C1 (racemic) [compound 29, (±)-cis-N-[4-methyl-1-(propan-2-yl)pyrrolidin-3-yl]-3-oxo-3,4-dihydro-2H-1,4-benzoxazine-7-carboxamide] | > 50 |

same assay, conditions: Table 4; average of n = 1 to n = 50; read-out: SMYD2 Biochem IC50

| Molecule | IC50 [µM] |
| --- | --- |
| C[C@H]1CN(S(=O)(=O)CCN)C[C@H]1NC(=O)c1cc(C2CC2)cnn1 (racemic) [compound 127, rac-N-((3R,4R)-1-((2-aminoethyl)sulfonyl)-4-methylpyrrolidin-3-yl)-5-cyclopropylpyridazine-3-carboxamide] | > 50 |
| CC(C)N1C[C@H](C)[C@H](NC(=O)c2cn(C3CC3)cn2)C1 (stereo in doubt) [compound 123, rac-1-cyclopropyl-N-((3R,4R)-1-isopropyl-4-methylpyrrolidin-3-yl)-1H-imidazole-4-carboxamide] | 2.2 |
